Data taken from patent publication US20220304352A1, “TASTE-MODIFYING COMPOUNDS AND USES THEREOF” (Firmenich SA, priority 2019, published 2022).

Columns and labels:
Assay type in all cases: in vivo
[1] = test system: trained panelists; test: Sensory evaluation of umami in 0.05% MSG base (trained panel, scale -5 to 5)
Source text: (§1) A panel consisting of 25 trained panelists evaluated samples at 5, 10 or 20 ppm for taste properties (salt and/or umami, or KCl taste) on a scale of −5 to 5 (−5 denoted strong masking effect and 5 denoted strong enhancing effect, 0 being the intensity of a reference water solution containing 0.25% NaCl or 0.25% KCl or 0.05% MSG or 1.5% chicken broth base). A panel consisted of 25 trained panelists evaluated samples at 5 ppm for taste properties (salt and/or umami) on a scale of −5 to 5 (−5 denoted strong masking effect and 5 denoted strong enhancing effect, 0 being the intensity of a reference water solution containing 0.25% NaCl or 0.05% MSG or 1.5% chicken broth base). • 1) Sensory Evaluation

[2] = test system: trained panelists; test: Sensory evaluation of saltiness in 0.25% NaCl base (trained panel, scale -5 to 5)
Source text: as §1

[3] = test system: trained panelists; test: Sensory evaluation of saltiness and KCl taste in 0.25% KCl base (trained panel, scale -5 to 5); conditions: 0.25% KCl base, 20 ppm
Source text: A panel consisting of 25 trained panelists evaluated samples at 5, 10 or 20 ppm for taste properties (salt and/or umami, or KCl taste) on a scale of −5 to 5 (−5 denoted strong masking effect and 5 denoted strong enhancing effect, 0 being the intensity of a reference water solution containing 0.25% NaCl or 0.25% KCl or 0.05% MSG or 1.5% chicken broth base).

## O=C(NCCO)c1ccc(O)cc1 [Compound III]
[1]; 5 ppm, with nose-clip
  umami enhancement: enhanced umami
[1]; 5 ppm, without nose-clip
  umami enhancement: enhanced umami
[2]; 5 ppm, with nose-clip
  saltiness enhancement: significantly enhanced saltiness
[2]; 5 ppm, without nose-clip
  saltiness enhancement: significantly enhanced saltiness

## O=C(NCCO)c1ccccc1 [Compound II]
[1]; 5 ppm, with nose-clip
  umami enhancement: enhanced
[1]; 5 ppm, without nose-clip
  umami enhancement: enhanced umami
[2]; 5 ppm, with nose-clip
  saltiness enhancement: significantly enhanced saltiness
[2]; 5 ppm, without nose-clip
  saltiness enhancement: enhanced saltiness

## O=C(/C=C/c1ccccc1)NCCO [Compound IV]
[1]; 10 ppm, with nose-clip
  umami enhancement: enhanced umami
[1]; 10 ppm, without nose-clip
  umami enhancement: enhanced umami
[2]; 10 ppm, with nose-clip
  saltiness enhancement: significantly enhanced saltiness
[2]; 10 ppm, without nose-clip
  saltiness enhancement: enhanced saltiness

## N=C(N)NCCCC(NC(=O)/C=C/c1ccccc1)C(=O)O (stereo not drawn) [Compound VI]
[1]; 5 ppm, without nose-clip
  umami enhancement: significantly enhanced umami intensity
[1]; 10 ppm, with nose-clip
  umami enhancement: enhanced
[1]; 10 ppm, without nose-clip
  umami enhancement: enhanced
[2]; 5 ppm, with nose-clip
  saltiness enhancement: significantly enhanced saltiness intensity
[2]; 10 ppm, with nose-clip
  saltiness enhancement: enhanced saltiness
[2]; 10 ppm, without nose-clip
  saltiness enhancement: enhanced saltiness

## O=C(/C=C/C=C/c1ccc2c(c1)OCO2)NCCO [Compound V]
[1]; 20 ppm, with nose-clip
  umami enhancement: enhanced umami
[1]; 20 ppm, without nose-clip
  umami enhancement: enhanced umami
[3]; with nose-clip
  KCl taste masking: significantly masked KCl taste
  saltiness enhancement: enhanced saltiness
[3]; without nose-clip
  KCl taste masking: significantly masked KCl taste
  saltiness enhancement: enhanced saltiness
